Results as given in US8809333B2, “Imidazole, pyrazole, and triazole derivatives useful as antibacterial agents” (Pfizer Inc., priority 2011, dated 2014).
Converted amounts (≈) assume the structure as drawn.

How the values were obtained:
[1] = system: Escherichia coli EC-1: VOGEL, mouse virulent; assay: MIC determination (CLSI), EC-1; format: cell-based; conditions: for MIC: Escherichia coli, read-out: EC-1 (MIC)
Procedure, shortened: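 Broth dilution MIC per CLSI M7-A8, with 2-fold compound dilutions incubated overnight with a standard inoculum. MIC is the lowest concentration visibly inhibiting growth versus drug-free control; tested in duplicate, reporting the lower value when within 2-fold, with QC organisms and reference compounds required in range.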

[2] = molecular target: T1, Pseudomonas aeruginosa LpxC enzyme (Pseudomonas aeruginosa, UniProt P47205); assay: IC50 assay, LpxC enzyme from P. aeruginosa (BioTrove RapidFire mass spectrometry); format: biochemical; conditions: P. aeruginosa LpxC enzyme 0.1 nM, 25° C., 1 hour, pH 8.0; read-out: PA: IC50
T1 construct: made in house; host or cells: E. coli
T1 sequence (P47205 1-303): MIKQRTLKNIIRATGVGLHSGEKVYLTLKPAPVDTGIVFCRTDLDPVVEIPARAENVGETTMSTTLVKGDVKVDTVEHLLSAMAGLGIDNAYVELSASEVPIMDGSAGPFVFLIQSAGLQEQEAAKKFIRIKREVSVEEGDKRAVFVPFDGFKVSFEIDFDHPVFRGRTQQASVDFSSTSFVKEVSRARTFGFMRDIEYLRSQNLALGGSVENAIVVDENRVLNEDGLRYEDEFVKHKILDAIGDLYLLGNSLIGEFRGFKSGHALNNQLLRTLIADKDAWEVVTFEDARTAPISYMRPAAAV
Procedure, shortened: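 P. aeruginosa LpxC reaction run 1 hour, stopped with 1 N HCl, and substrate-to-product conversion quantified by RapidFire mass spectrometry. IC50 calculated from percent conversion using a no-enzyme control.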

[3] = system: Acinetobacter baumannii/haemolyticus: Multidrug-resistant clinical isolate (AB-3167); assay: MIC determination (CLSI), AB-3167; format: cell-based; conditions: Acinetobacter baumannii/haemolyticus multidrug-resistant clinical isolate, overnight incubation, lower of duplicate values; for MIC: read-out: AB-3167 (MIC)
Procedure, shortened: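 Broth dilution MIC per CLSI M7-A8, 2-fold concentration steps, overnight incubation, visual read of lowest concentration inhibiting growth versus drug-free control. Tested in duplicate; lower value reported if within 2-fold, otherwise repeated; QC organisms and reference drugs required within range.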

[4] = system: Pseudomonas aeruginosa UI-18: Wild-type (PA-7); assay: MIC determination (CLSI), PA-7; format: cell-based; conditions: Pseudomonas aeruginosa UI-18 wild-type, overnight incubation, lower of duplicate values; for MIC: read-out: PA-7 (MIC)
Procedure, shortened: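 Broth dilution MIC per CLSI M7-A8, using 2-fold compound dilutions incubated overnight; MIC is the lowest concentration with no visible growth versus the drug-free control. Run in duplicate, lower value reported when within 2-fold. Control organisms and reference compounds were included for QC.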

[5] = system: Klebsiella pneumoniae: Ciprofloxacin-resistant isolate, expresses ESBL, clinical isolate (KP-3700); assay: MIC determination (CLSI), KP-3700; format: cell-based; conditions: overnight incubation, lower of duplicate values
Procedure, shortened: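 Broth dilution MIC per CLSI M7-A8 against the ciprofloxacin-resistant, ESBL-expressing clinical isolate, 2-fold concentration steps, overnight incubation, visual read of lowest growth-inhibiting concentration. Tested in duplicate; lower value reported when within 2-fold; control organisms and reference compounds required within range.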

Work on `CC(CCn1cc(-c2ccc3[nH]c(C(N)=O)cc3c2)cn1)(C(=O)NO)S(C)(=O)=O` (stereo not drawn) [Example 87, 5-{1-[4-(hydroxyamino)-3-methyl-3-(methylsulfonyl)-4-oxobutyl]-1H-pyrazol-4-yl}-1H-indole-2-carboxamide] yielded an MIC [1] greater than 64 µg/mL, an IC50 [2] of 63.6 nM and an MIC [3] greater than 64 µg/mL. For the same compound, the MIC [4] was greater than 64 µg/mL and the “KP-3700 (MIC)” value [5] was greater than 64.0 µg/mL.
For `CC(CCn1cc(-c2cccc(OC(F)(F)F)c2)cn1)(C(=O)NO)S(C)(=O)=O` (stereo not drawn) [Example 88, N-hydroxy-2-methyl-2-(methylsulfonyl)-4-{4-[3-(trifluoromethoxy)phenyl]-1H-pyrazol-1-yl}butanamide], the MIC [1] was 32 µg/mL (≈ 75.9 µM), the IC50 [2] was 0.652 nM and the MIC [3] was 64 µg/mL (≈ 152 µM). For the same compound, the MIC [4] was 8 µg/mL (≈ 19 µM) and the “KP-3700 (MIC)” value [5] was greater than 64.0 µg/mL.
In the case of `CC(CCn1cc(-c2ccc(-c3csnn3)cc2)cn1)(C(=O)NO)S(C)(=O)=O` (stereo not drawn) [Example 90, N-hydroxy-2-methyl-2-(methylsulfonyl)-4-{4-[4-(1,2,3-thiadiazol-4-yl)phenyl]-1H-pyrazol-1-yl}butanamide], the MIC [1] is reported as 16 µg/mL (≈ 38 µM), the IC50 [2] is reported as 1.23 nM and the MIC [3] is reported as greater than 64 µg/mL. The MIC [4] was 4 µg/mL (≈ 9.49 µM) and the “KP-3700 (MIC)” value [5] was 64 µg/mL.
For `CCc1nc2ccc(-c3cnn(CCC(C)(C(=O)NO)S(C)(=O)=O)c3)cc2s1` (stereo not drawn) [Example 91, 4-[4-(2-ethyl-1,3-benzothiazol-6-yl)-1H-pyrazol-1-yl]-N-hydroxy-2-methyl-2-(methylsulfonyl)butanamide], the MIC [1] was 32 µg/mL (≈ 75.7 µM), the IC50 [2] was 2.55 nM and the MIC [3] was greater than 64 µg/mL. For the same compound, the MIC [4] was 16 µg/mL (≈ 37.9 µM) and the “KP-3700 (MIC)” value [5] was greater than 64.0 µg/mL.
Work on `Cc1nccc(-c2ccc(-c3cnn(CCC(C)(C(=O)NO)S(C)(=O)=O)c3)cc2)n1` (stereo not drawn) [Example 92, N-hydroxy-2-methyl-4-{4-[4-(2-methylpyrimidin-4-yl)phenyl]-1H-pyrazol-1-yl}-2-(methylsulfonyl)butanamide] yielded an MIC [1] of 32 µg/mL (≈ 74.5 µM), an IC50 [2] of 5.49 nM and an MIC [3] greater than 64 µg/mL. The MIC [4] was 32 µg/mL (≈ 74.5 µM) and the “KP-3700 (MIC)” value [5] was greater than 64.0 µg/mL.
In the case of “(2R)-4-[4-(2-fluoro-4-methoxyphenyl)-1H-1,2,3-triazol-1-yl]-N-hydroxy-2-methyl-2-(methylsulfonyl)butanamide [Example 22]”, the “EC-1 (MIC)” value ([1]; Escherichia coli EC-1 VOGEL, mouse virulent, overnight incubation, lower of duplicate values) is reported as 4 µg/mL, the IC50 [2] is reported as 1.2 nM and the “AB-3167 (MIC)” value [3] is reported as greater than 64.0 µg/mL. For the same compound, the “PA-7 (MIC)” value [4] was 2 µg/mL and the “KP-3700 (MIC)” value [5] was 32 µg/mL.
